Test results as given in paper PMC4749844, “Investigation of Calcium Channel Blockers as Antiprotozoal Agents and Their Interference in the Metabolism of Leishmania (L.) infantum” (Evidence-based Complementary and Alternative Medicine : eCAM, 2016).
Read-outs that look alike come from different tables or passages of the source.

What was measured:
L. (L.) amazonensis = tested on: L. (L.) amazonensis; parameters: method as in PMID 9501844; settings: read-out: IC50 against L. (L.) amazonensis; cited from earlier work
L. (L.) major = tested on: L. (L.) major; parameters: method as in PMID 9501844; settings: read-out: IC50 against L. (L.) major; cited from earlier work
[1] = tested on: L. (L.) infantum promastigotes; settings: not told
Protocol: L. (L.) infantum promastigotes were washed with PBS, deposited on a 96-well microplate (2 × 10^6 parasites/well) and incubated with SYTOX® Green (1 μM) for 15 minutes at 24°C [10]. Amlodipine and fendiline were added at 20 μM and the fluorescence was measured up to 60 minutes. The fluorescence intensity was determined using a fluorimetric microplate reader (FilterMax F5 Multi-Mode Microplate Reader-Molecular Devices) with excitation and emission wavelengths of 485 and 520 nm, respectively. Triton X-100 (0.1%) was used as positive control and untreated promastigotes were used as negative control.

[2] = tested on: L. (L.) infantum promastigotes; experiment: Mitochondrial membrane potential, MitoTracker Red; type: cell-based, Leishmania (L.) infantum; settings: for reduction of MitoTracker Red fluorescence levels relative to untreated parasites: 20 μM, 60 minutes, p < 0.05
Protocol: L. […] Then MitoTracker® Red CM-H2XROS (500 nM) was added and the incubation was continued for 40 minutes in the dark. […] Nitazoxanide (60 μg/mL) was used as a positive control and untreated promastigotes were used as negative control.

[3] = tested on: L. (L.) infantum promastigotes; experiment: Reactive oxygen species (ROS), H2DCF-DA; type: cell-based, Leishmania (L.) infantum; settings: for regulation of ROS content compared to untreated parasites: amlodipine, fendiline 20 μM, 60 minutes
Protocol: L. (L.) infantum promastigotes (2 × 10^6 cells/well) were washed in HBSS medium and incubated with amlodipine or fendiline (20 μM) for 60 minutes at 24°C. To these cells 2′,7′-dichlorodihydrofluorescein diacetate (H2DCf-DA) was added (5 μM) and incubation was prolonged for 15 minutes. […] Nitazoxanide (60 μg/mL) was used as positive control and untreated promastigotes were used as negative control.

[4] = tested on: L. (L.) infantum promastigotes; experiment: Antileishmanial activity against promastigotes, MTT assay; type: cell-based, Leishmania (L.) infantum; settings: 24 hours at 24°C, highest concentration 100 μM; for IC50: Leishmania infantum, read-out: IC50 ± SD, L. (L.) infantum promastigotes
Protocol: (§1) Promastigotes of L. (L.) amazonensis (WHO/BR/00/LT0016), L. (V.) braziliensis (MHO/BR/75/M2903), and L. (L.) infantum (MHOM/BR/1972/LD) [synonymous with L. (L.) chagasi] were maintained in M199 medium supplemented with 10% calf serum and 0.25% hemin at 24°C. L. (L.) infantum amastigotes were obtained from the spleen of infected hamster by differential centrifugation at the 60–70th days after infection. Macrophages were collected from the peritoneal cavity of BALB/c mice by washing with RPMI-1640 medium supplemented with 10% fetal calf serum and were maintained at 37°C in a 5% CO2 humidified incubator. Trypanosoma cruzi trypomastigotes (Y strain) were maintained in LLC-MK2 (ATCC CCL 7) cells using RPMI-1640 medium supplemented with 2% calf serum at 37°C in a 5% CO2 humidified incubator.
(§2) To determine the 50% inhibitory concentration (IC50) against Leishmania promastigotes, the drugs were dissolved in DMSO and diluted with M199 medium in 96-well microplates, with 100 μM as the highest concentration. Each drug was tested twice at eight concentrations prepared in twofold dilutions. Promastigotes were counted in a Neubauer hemocytometer and seeded at 1 × 10^6 parasites/well with a final volume of 150 μL. Controls with DMSO and without drugs were performed. Pentamidine was used as a standard drug. The plate was incubated for 24 hours at 24°C and the viability of promastigotes was verified by the MTT assay. Briefly, MTT (5 mg/mL) was dissolved in PBS, sterilized through 0.22 μm membrane and 20 μL/well was added, for 4 hours at 24°C. Promastigotes were incubated without compounds and used as a viability control. Formazan extraction was performed using 10% SDS for 18 hours (80 μL/well) at 24°C, and the optical density was determined in a Multiskan MS (UNISCIENCE) plate reader at 550 nm. The 100% viability was expressed based on the optical density of control promastigotes, after normalization. […] Plates were incubated at 37°C in a 5% CO2 humidified incubator for 24 hours. L. (L.) infantum amastigotes extracted from spleens and separated by differential centrifugation were added to macrophages at a ratio of 10 : 1 (amastigotes : macrophage). After 24 hours, extracellular parasites were removed by washing, fresh medium containing the drugs and controls was added, and the cells were incubated at 37°C for a period of 120 hours. Further medium changes with fresh drugs were carried out after 72 hours. At the end of the assay, the slides were stained with Giemsa and observed using light microscopy. Glucantime was used as a standard drug. The IC50 was determined by the number of infected macrophages in 400 cells.

[5] = tested on: L. (V.) braziliensis promastigotes; experiment: as above; type: cell-based, Leishmania (V.) braziliensis; settings: 24 hours at 24°C, highest concentration 100 μM; for IC50: Leishmania, read-out: IC50 ± SD, L. (V.) braziliensis promastigotes
Protocol: as §1, §2

[6] = tested on: Leishmania spp. promastigotes; experiment: Antileishmanial activity against promastigotes of all species tested, MTT assay; type: cell-based; settings: range over the Leishmania species tested
Protocol: as §1
To determine the 50% inhibitory concentration (IC50) against Leishmania promastigotes, the drugs were dissolved in DMSO and diluted with M199 medium in 96-well microplates, with 100 μM as the highest concentration. Each drug was tested twice at eight concentrations prepared in twofold dilutions. Promastigotes were counted in a Neubauer hemocytometer and seeded at 1 × 10^6 parasites/well with a final volume of 150 μL. Controls with DMSO and without drugs were performed. Pentamidine was used as a standard drug. […]

[7] = Cytotoxicity in mammalian cells, MTT assay; type: cell-based; settings: rhesus monkey, LLC-MK2 cells; 48 hours at 37°C; read-out: IC50 ± SD, LLC-MK2 cytotoxicity
Protocol: LLC-MK2 were seeded at 5 × 10^4 cells/well in 96-well microplates and incubated with drugs with 200 μM as the highest concentration, for 48 hours at 37°C in a 5% CO2 humidified incubator. The viability of the cells was determined by the MTT assay as described above. Control cells were incubated in the presence of DMSO and without drugs. Viability of 100% was expressed based on the optical density of control LLC-MK2 cells, after normalization. The Selectivity Index (SI) was given by the ratio between the cytotoxicity in LLC-MK2 cells and the antiparasitic activity.

[8] = tested on: L. (L.) infantum intracellular amastigotes; experiment: Activity against intracellular amastigotes in peritoneal macrophages, Giemsa staining and light microscopy; type: cell-based, Leishmania (L.) infantum; settings: for IC50 ± SD, L. (L.) infantum amastigotes / IC50: intracellular amastigotes in BALB/c peritoneal macrophages, 120 hours; for IC50: read-out: IC50 ± SD, L. (L.) infantum amastigotes; for Selectivity Index (SI), L. (L.) infantum amastigotes: ratio between cytotoxicity to LLC-MK2 cells and antiparasitic activity
Protocol: as §1, §2

T. cruzi trypomastigotes = experiment: Antitrypanosomal activity, MTT assay; type: cell-based, Trypanosoma cruzi; settings: for IC50 ± SD, T. cruzi trypomastigotes / IC50: 24 hours at 37°C, highest concentration 100 μM; for IC50: read-out: IC50 ± SD, T. cruzi trypomastigotes; for Selectivity Index (SI), T. cruzi trypomastigotes: ratio between cytotoxicity to LLC-MK2 cells and antiparasitic activity
Protocol: as §1
To determine the IC50 against T. cruzi trypomastigotes, drugs were dissolved in DMSO and diluted with RPMI-1460 medium in 96-well microplates, with the highest concentration at 100 μM. Trypomastigotes obtained from LLC-MK2 cultures were counted in a Neubauer hemocytometer and seeded at 1 × 10^6 parasites/well in 96-well microplates. Test drugs were incubated for 24 hours at 37°C in a 5% CO2 humidified incubator and the viability of trypomastigotes was verified by the MTT assay as described above. Benznidazole was used as a standard drug.

[9] = tested on: L. (L.) amazonensis promastigotes; experiment: Antileishmanial activity against promastigotes, MTT assay; type: cell-based, Leishmania (L.) amazonensis; settings: 24 hours at 24°C, highest concentration 100 μM; for IC50: Leishmania amazonensis, read-out: IC50 ± SD, L. (L.) amazonensis promastigotes
Protocol: as §1, §2

T. cruzi epimastigotes = tested on: T. cruzi epimastigotes; parameters: method as in PMID 9457486; settings: in vitro; read-out: IC50 against T. cruzi epimastigotes; cited from earlier work
[10] = Leishmania infantum, Peritoneal macrophage, in Mus musculus, 120 h

Compound: Nc1ccncc1 [4-aminopyridine]
- IC50 (L. (L.) amazonensis): 46 µM
- IC50 (L. (L.) major): > 400 µM

Compound: CCOC(=O)C1=C(COCCN)NC(C)=C(C(=O)OC)C1c1ccccc1Cl (stereo not drawn) [Amlodipine, amlodipine]
- plasma membrane permeability (SYTOX Green fluorescence) [1]: no interference on the plasma membrane permeability
- reduction of MitoTracker Red fluorescence levels relative to untreated parasites [2]: 7%
- ROS levels, fold higher compared to fendiline ([3]; 20 μM): ~3 fold
- upregulation of ROS, fold higher than nitazoxanide ([3]; amlodipine 20 μM, nitazoxanide 60 μg/mL): 1.99 fold
- regulation of ROS content compared to untreated parasites ([3]; nitazoxanide 60 μg/mL): intense and significant (p < 0.05) upregulation of ROS content

Compound: Nc1cc(-c2ccncc2)c[nH]c1=O [Amrinone]
- IC50 ± SD, L. (L.) infantum promastigotes [4]: ne^b
- IC50 ± SD, L. (V.) braziliensis promastigotes [5]: ne^b
- IC50 [6]: > 100 µM
- IC50 at 48 h [7]: > 500 µM
- IC50 ± SD, L. (L.) infantum amastigotes [8]: ne^b
- IC50 ± SD, T. cruzi trypomastigotes (T. cruzi trypomastigotes): ne^b
- IC50 ± SD, T. cruzi trypomastigotes (T. cruzi trypomastigotes; listed as amrinone): inactive
- IC50 ± SD, L. (L.) amazonensis promastigotes [9]: ne^b

Compound: O=C(Cn1ccnc1[N+](=O)[O-])NCc1ccccc1 [Benznidazole]
- IC50 at 48 h [7]: > 500 µM
- IC50 (T. cruzi trypomastigotes): 440 ± 39.1 µM
- IC50 (T. cruzi trypomastigotes; Trypanosoma cruzi, 24 h): 440 µM

Compound: CC(NCCC(c1ccccc1)c1ccccc1)c1ccccc1 (stereo not drawn) [Fendiline, fendiline]
- IC50 [4]: 16.1 ± 4.2 µM
- IC50 [5]: 9.15 ± 0.78 µM
- plasma membrane permeability (SYTOX Green fluorescence) [1]: no interference on the plasma membrane permeability
- IC50 at 48 h [7]: 49.9 ± 8.16 µM
- reduction of MitoTracker Red fluorescence levels relative to untreated parasites [2]: 18%
- IC50 [8, 10]: 12 to 16 µM
- IC50 [8]: 12.2 ± 1.74 µM
- Selectivity Index (SI), L. (L.) infantum amastigotes [8]: 4.09
- regulation of ROS content compared to untreated parasites ([3]; nitazoxanide 60 μg/mL): intense and significant (p < 0.05) upregulation of ROS content
- IC50 (T. cruzi trypomastigotes; Trypanosoma cruzi, 24 h): 12.1 ± 2.97 µM
- Selectivity Index (SI), T. cruzi trypomastigotes (T. cruzi trypomastigotes): 4.11
- IC50 [9]: 8.66 ± 1.27 µM

Compound: Cc1cccc(C)c1NC(=O)CN1CCN(CCCC(c2ccc(F)cc2)c2ccc(F)cc2)CC1 [Lidoflazine, lidoflazine]
- IC50 [4]: 17.7 ± 0.93 µM
- IC50 [5]: 14.5 ± 1.08 µM
- IC50 at 48 h [7]: 107 ± 58 µM
- IC50 [8, 10]: 12 to 16 µM
- IC50 [8]: 16.3 ± 4.45 µM
- Selectivity Index (SI), L. (L.) infantum amastigotes [8]: 6.54
- IC50 (T. cruzi trypomastigotes; Trypanosoma cruzi, 24 h): 10.4 ± 1.87 µM
- Selectivity Index (SI), T. cruzi trypomastigotes (T. cruzi trypomastigotes): 10.25
- IC50 [9]: 11.5 ± 1.49 µM

Compound: COCC(=O)O[C@]1(CCN(C)CCCc2nc3ccccc3[nH]2)CCc2cc(F)ccc2[C@@H]1C(C)C [Mibefradil, mibefradil]
- IC50 [4]: 3.6 ± 0.11 µM
- IC50 [5]: 2.75 ± 0.39 µM
- IC50 at 48 h [7]: 12 ± 1.03 µM
- IC50 ± SD, L. (L.) infantum amastigotes [8]: ne^b
- IC50 ± SD, L. (L.) infantum amastigotes ([8]; listed as mibefradil): lack of activity
- IC50 (T. cruzi trypomastigotes; Trypanosoma cruzi, 24 h): 2.99 ± 0.43 µM
- Selectivity Index (SI), T. cruzi trypomastigotes (T. cruzi trypomastigotes): 4.01
- IC50 [9]: 2.23 ± 0.42 µM

Compound: CC(=O)Oc1ccccc1C(=O)Nc1ncc([N+](=O)[O-])s1 [Nitazoxanide]
- effect on mitochondrial membrane potential (fluorescence intensity) ([2]; nitazoxanide 60 μg/mL, positive control): strong reduction of fluorescence intensity
- regulation of ROS content compared to untreated parasites ([3]; nitazoxanide 60 μg/mL): significant upregulation of ROS

Compound: N=C(N)c1ccc(OCCCCCOc2ccc(C(=N)N)cc2)cc1 [Pentamidine]
- IC50 [4]: 1.06 ± 0.12 µM
- IC50 [5]: 0.69 ± 0.04 µM
- IC50 [6]: 0.69 to 1.14 µM
- IC50 at 48 h [7]: 23.5 ± 3.53 µM
- IC50 [9]: 1.14 ± 0.15 µM

Compound: COC(=O)C1=C(C)NC(C)=C(C(=O)OC(C)C)C1c1cccc2nonc12 (stereo not drawn) [isradipine]
- IC50 (T. cruzi epimastigotes): 20 µM

Compound: CCOC(=O)C1=C(C)NC(C)=C(C(=O)OCC)C1c1ccccc1/C=C/C(=O)OC(C)(C)C [lacidipine]
- IC50 (T. cruzi epimastigotes): 33 µM

Compound: Triton X-100
- plasma membrane permeability (SYTOX Green fluorescence) [1]: fully permeabilized parasites
